Test results as given in ChEMBL document CHEMBL1201862, “PubChem BioAssay data set” (2004).
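Values below derive from 48-hour exposures of cells grown in 96-well plates, with endpoints linearly interpolated between the two concentrations bracketing the appropriate inhibition level. GI50 = concentration required for 50% inhibition of growth.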 Active and inactive are the calls of the source. Cut-off read from the data, not from the text of the source: active = GI50 up to about 1.1 µM and inactive = higher.

Tests used:
Assay in all cases: NCI anticancer screen, dose series, 48 h
DLD-1 = system: DLD-1
DMS-114 = system: DMS-114
HOP-18 = system: HOP-18
KM-20L2 = system: KM-20L2
LXFL 529 = system: LXFL 529
RXF 631 = system: RXF 631
XF498 = system: XF498

Measured: GI50

O=c1[nH]cc(C(F)(C(F)(F)F)C(F)(F)F)c(=O)[nH]1
inactive: DLD-1 > 100 µM | DMS-114 > 100 µM | HOP-18 > 100 µM | KM-20L2 > 100 µM | LXFL 529 > 100 µM | RXF 631 > 100 µM | XF498 > 100 µM

COc1ccc(Cc2nc3ccccc3s2)cc1OC
inactive: DLD-1 16.6 µM | DMS-114 15.7 µM | HOP-18 23.9 µM | KM-20L2 19.3 µM | LXFL 529 17.5 µM | RXF 631 17.7 µM | XF498 15.3 µM

COC(=O)C1CC/C(=N/c2ccc(C)cc2C)N1 (stereo unspecified)
inactive: DLD-1 > 100 µM | HOP-18 > 100 µM | KM-20L2 > 100 µM | LXFL 529 > 100 µM | RXF 631 > 100 µM | XF498 > 100 µM

CCOC(=N)CC(=O)Nc1ccccc1CC
inactive: DLD-1 > 100 µM | HOP-18 > 100 µM | KM-20L2 > 100 µM | LXFL 529 > 100 µM | RXF 631 > 100 µM | XF498 > 100 µM

CCOC(=O)Cc1nc2ccccc2s1
inactive: DLD-1 16.6 µM | HOP-18 24.8 µM | KM-20L2 27.6 µM | LXFL 529 16 µM | RXF 631 16.8 µM | XF498 14.8 µM

Cn1nc(-c2ccccc2)c(C(=O)/C=C/c2ccc(F)cc2)c(N2CCCCC2)c1=O
inactive: DLD-1 3.61 µM | DMS-114 3.86 µM | HOP-18 5.66 µM | KM-20L2 5.18 µM | LXFL 529 4.68 µM | RXF 631 8.61 µM | XF498 21.1 µM

O=C(CCn1[nH]c(=O)c(Cl)c(Cl)c1=O)NNC(=O)C[n+]1ccccc1
inactive: DLD-1 > 100 µM | DMS-114 > 100 µM | HOP-18 > 100 µM | KM-20L2 > 100 µM | LXFL 529 > 100 µM | RXF 631 > 100 µM | XF498 > 100 µM
